# Reference: paper PMC2424174, “Suppression of Tumor Growth and Angiogenesis by a Specific Antagonist of the Cell-Surface Expressed Nucleolin” (PLoS ONE, 2008)
# Tested on: nucleolin
# Test: Nucleolin expression in HB-19 treated MDA-MB-231 cells (immunoblot / immunofluorescence)
# Format: cell-based, human
# Conditions: for reduction of surface/cytoplasmic nucleolin: 10 µM HB-19, 37°C, vs untreated, immunoblot band intensity
# Description: Figure 2 HB-19 binds nucleolin expressed on the surface of tumor cells and causes reduction of cytoplasmic/surface but not nuclear nucleolin. (A) HB-19/Btn forms a stable complex with nucleolin expressed on the surface of cells. MDA-MB-231 cells were incubated (45 min, 20°C) with 0, 1, 2, 4, 8 and 12 µM of HB-19/Btn before preparation of surface/cytoplasmic (i.e., nucleus-free) and nuclear extracts, [28]. Samples of surface nucleolin (purified using surface/cytoplasmic extracts from 2×10^7 cells) and crude surface/cytoplasmic and nuclear extracts (from 2×10^6 cells) were analyzed by immunoblotting for the detection of nucleolin using mAb D3. (B) Specific reduction of surface/cytoplasmic nucleolin in HB-19 treated cells. MDA-MB-231 cells were cultured (at 37°C) with 10 µM of HB-19 for 4, 24 and 48 hours before preparation of cytoplasmic and nuclear extracts. Material from 2×10^6 cells (Untreated or HB-19 treated cells as indicated − or + signs, respectively) was analyzed by immunoblotting for the detection of nucleolin. Sections of the gel at the position of the nucleolin bands are presented. […] The intensity of nucleolin protein bands quantified by using the NIH image software indicated 75% and 93% reduction of surface/cytoplasmic nucleolin in HB-19 treated cells at 24 and 48 hours, respectively, compared to the corresponding untreated cells. (C) HB-19 binds the cell surface and enters in the cytoplasm but not the nucleus. MDA-MB-231 cells were incubated at 20°C (for HB-19 Binding) or 37°C (for HB-19 Entry) with 5 µM of HB-19/Btn for 1 hour before fixation in PFA or PFA-Triton, respectively. Fixed cells were successively incubated with rabbit anti-biotin and goat Texas Red-conjugated anti-rabbit IgG and the nuclei were colored with DAPI. Scans corresponding to the cross-section of cells are shown, each with or without the DAPI. (D) Nucleolar nucleolin is not affected in HB-19 treated cells. MDA-MB-231 cells cultured in the absence (Control Cells) or presence of 10 µM of HB-19 for 48 hours (HB-19 Treated Cells) were fixed in PFA-Triton and processed for fluorescence microscopy.
# Cells washed in phosphate-buffered saline (PBS) were lysed in buffer E (20 mM Tris–HCl, pH 7.6, 150 mM NaCl, 5 mM MgCl2, 0.2 mM phenylmethylsulfonyl fluoride (PMSF), 5 mM β-mercaptoethanol, aprotinin (1000 U/ml) and 0.5% Triton X-100) and the nuclei were pelleted by centrifugation (1000g for 5 min). […] Aliquots of crude cell extracts were diluted in 2 fold concentrated electrophoresis sample buffer containing SDS, heated and analyzed by SDS- polyacrylamide gel electrophoresis (PAGE). […]
substance,measurement,setting,value
"pseudo-tripeptide Lysψ(CH2N)-Pro-Arg coupled to a template (H2NLys-Lys-Lys-Gly-Pro-Lys-Glu-Lys-AhxCONH2) [HB-19, pseudopeptide presenting pentavalently the pseudo-tripeptide Lysψ(CH2N)-Pro-Arg coupled to a template]",level and nucleolar localization of nuclear nucleolin,"10 µM HB-19, 24–48 hours",without apparent modification
same,reduction of surface/cytoplasmic nucleolin,24 hours,75%
same,reduction of surface/cytoplasmic nucleolin,48 hours,93%
same,expression of other cytoplasmic proteins,"10 µM HB-19, stained gel",not affected
